Experimental data published in PubChem BioAssay (NCI).
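Following 48 hours of exposure in 96-well plates, responses at five concentrations were used to interpolate endpoints linearly. The concentration for full growth arrest is given as TGI.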

Assays:
Experiment in all cases: growth of human tumour cells (NCI), 48 h
[1] = tested on: RXF 393 renal
[2] = tested on: SNB-19 CNS
[3] = tested on: KM12 colon
[4] = tested on: UACC-257 melanoma
[5] = tested on: KM20L2 colon
[6] = tested on: TK-10 renal
[7] = tested on: SF-539 CNS
[8] = tested on: RPMI-8226 leukemia
[9] = tested on: OVCAR-4 ovarian
[10] = tested on: UACC-62 melanoma
[11] = tested on: OVCAR-3 ovarian
[12] = tested on: NCI-H460 lung
[13] = tested on: K-562 leukemia
[14] = tested on: HCT-15 colon
[15] = tested on: HCC-2998 colon
[16] = tested on: LXFL 529 NSCLC
[17] = tested on: A549 NSCLC
[18] = tested on: HT29 colon
[19] = tested on: CCRF-CEM leukemia
[20] = tested on: MALME-3M melanoma
[21] = tested on: DMS 273 small cell lung
[22] = tested on: IGROV1 ovarian
[23] = tested on: MOLT-4 leukemia
[24] = tested on: OVCAR-8 ovarian
[25] = tested on: 786-0 renal
[26] = tested on: HL-60(TB) leukemia
[27] = tested on: ACHN renal
[28] = tested on: NCI-H23 lung
[29] = tested on: DLD-1 colon
[30] = tested on: M19-MEL melanoma
[31] = tested on: NCI-H522 lung
[32] = tested on: SW-620 colon
[33] = tested on: U251 CNS
[34] = tested on: SK-MEL-28 melanoma
[35] = tested on: COLO 205 colon
[36] = tested on: SK-MEL-2 melanoma
[37] = tested on: SF-268 CNS
[38] = tested on: SK-OV-3 ovarian
[39] = tested on: CAKI-1 renal
[40] = tested on: OVCAR-5 ovarian
[41] = tested on: LOX IMVI melanoma
[42] = tested on: HOP-92 NSCLC
[43] = tested on: SNB-75 CNS
[44] = tested on: EKVX NSCLC
[45] = tested on: UO-31 renal
[46] = tested on: SN12C renal
[47] = tested on: SK-MEL-5 melanoma
[48] = tested on: SF-295 CNS
[49] = tested on: M14 melanoma
[50] = tested on: BT-549 breast
[51] = tested on: NCI-H226 lung
[52] = tested on: MDA-N
[53] = tested on: HS 578T breast
[54] = tested on: PC-3 prostate
[55] = tested on: NCI/ADR-RES ovarian
[56] = tested on: T-47D breast
[57] = tested on: DU-145 prostate
[58] = tested on: MDA-MB-231 breast
[59] = tested on: SR leukemia
[60] = tested on: MDA-MB-435
[61] = tested on: A498 renal
[62] = tested on: HOP-62 NSCLC
[63] = tested on: HCT-116 colon
[64] = tested on: MCF7 breast

`CCOC(=O)/C(C#N)=C1/C(O)=C(C(=O)OC)C(C(=O)OC)=C1C(=O)OC` gave a TGI [1] of over 100 µM, a TGI [2] of over 100 µM and a TGI [3] of over 100 µM. For the same compound, the TGI [4] was over 100 µM, the TGI [5] was over 100 µM and the TGI [6] was over 100 µM. It also gave a TGI [7] of over 100 µM, a TGI [8] of over 100 µM and a TGI [9] of over 100 µM. For the same compound, the TGI [10] was over 100 µM, the TGI [11] was over 100 µM and the TGI [12] was over 100 µM. For the same compound, the TGI [13] was over 100 µM, the TGI [14] was over 100 µM and the TGI [15] was over 100 µM. For the same compound, the TGI [16] was over 100 µM, the TGI [17] was over 100 µM and the TGI [18] was over 100 µM. The TGI [19] was over 100 µM, the TGI [20] was over 100 µM and the TGI [21] was over 100 µM. The TGI [22] was over 100 µM, the TGI [23] was over 100 µM and the TGI [24] was over 100 µM. The TGI [25] was over 100 µM, the TGI [26] was over 100 µM and the TGI [27] was over 100 µM. It also gave a TGI [28] of over 100 µM, a TGI [29] of over 100 µM and a TGI [30] of over 100 µM. For the same compound, the TGI [31] was over 100 µM, the TGI [32] was over 100 µM and the TGI [33] was over 100 µM. For the same compound, the TGI [34] was over 100 µM, the TGI [35] was over 100 µM and the TGI [36] was over 100 µM. It also gave a TGI [37] of over 100 µM, a TGI [38] of over 100 µM and a TGI [39] of over 100 µM. The TGI [40] was over 100 µM, the TGI [41] was over 100 µM and the TGI [42] was over 100 µM. For the same compound, the TGI [43] was over 100 µM, the TGI [44] was over 100 µM and the TGI [45] was over 100 µM. For the same compound, the TGI [46] was over 100 µM, the TGI [47] was over 100 µM and the TGI [48] was over 100 µM. The TGI [49] was over 100 µM.

`c1ccc(C(=NNc2cnc3ccccc3n2)c2ccccn2)cc1` showed a TGI [1] of 21.5 µM, a TGI [2] of over 39.6 µM and a TGI [50] of 24.5 µM. The TGI [3] was 20.5 µM, the TGI [4] was 17.5 µM and the TGI [51] was 40.6 µM. For the same compound, the TGI [7] was 17.4 µM, the TGI [52] was over 52.2 µM and the TGI [8] was over 36.8 µM. It also gave a TGI [9] of 28 µM, a TGI [10] of 20.2 µM and a TGI [11] of 12.2 µM. For the same compound, the TGI [12] was 10.5 µM, the TGI [13] was over 67.5 µM and the TGI [14] was 14.5 µM. The TGI [15] was 19.9 µM, the TGI [17] was 15 µM and the TGI [53] was 37.9 µM. For the same compound, the TGI [54] was 19.2 µM, the TGI [55] was 2.15 µM and the TGI [18] was 17.7 µM. It also gave a TGI [19] of 28.3 µM, a TGI [20] of 23 µM and a TGI [22] of 11.5 µM. The TGI [23] was 11.4 µM, the TGI [24] was 2.68 µM and the TGI [25] was 15.4 µM. It also gave a TGI [26] of 12.3 µM, a TGI [27] of 12.6 µM and a TGI [56] of 33.5 µM. For the same compound, the TGI [57] was over 61.3 µM, the TGI [28] was 14.1 µM and the TGI [58] was 26.9 µM. It also gave a TGI [31] of 12.3 µM, a TGI [32] of 22.5 µM and a TGI [33] of 23.8 µM. For the same compound, the TGI [34] was 55.5 µM, the TGI [35] was 24.6 µM and the TGI [36] was 26.2 µM. For the same compound, the TGI [37] was 13.6 µM, the TGI [59] was 10.9 µM and the TGI [38] was over 44.6 µM. It also gave a TGI [39] of 12.2 µM, a TGI [60] of over 47.6 µM and a TGI [40] of 27.1 µM. The TGI [42] was 28.3 µM, the TGI [43] was 31.4 µM and the TGI [44] was 13.4 µM. The TGI [61] was over 100 µM, the TGI [45] was 3.25 µM and the TGI [62] was 20 µM. It also gave a TGI [46] of 24 µM, a TGI [47] of 16 µM and a TGI [63] of over 36.6 µM. The TGI [64] was 12.2 µM, the TGI [48] was 12.8 µM and the TGI [49] was 10.9 µM.
